From ChEMBL document CHEMBL5465560, “Selectivity Literature for EUbOPEN Chemogenomic Library” (2024)

Experiments:
[1] = biological target: Serine/threonine-protein kinase PAK 6 (Homo sapiens) (UniProt Q9NQU5); assay: Selectivity interaction (KinomeScan (DiscoverX)) EUB0000666a PAK6; settings: at 10 µM
[2] = biological target: T1, Serine/threonine-protein kinase 36 (Homo sapiens) (UniProt Q9NRP7); assay: Selectivity interaction (KinomeScan (DiscoverX)) EUB0000666a STK36; settings: at 10 µM
T1 sequence (whole entry): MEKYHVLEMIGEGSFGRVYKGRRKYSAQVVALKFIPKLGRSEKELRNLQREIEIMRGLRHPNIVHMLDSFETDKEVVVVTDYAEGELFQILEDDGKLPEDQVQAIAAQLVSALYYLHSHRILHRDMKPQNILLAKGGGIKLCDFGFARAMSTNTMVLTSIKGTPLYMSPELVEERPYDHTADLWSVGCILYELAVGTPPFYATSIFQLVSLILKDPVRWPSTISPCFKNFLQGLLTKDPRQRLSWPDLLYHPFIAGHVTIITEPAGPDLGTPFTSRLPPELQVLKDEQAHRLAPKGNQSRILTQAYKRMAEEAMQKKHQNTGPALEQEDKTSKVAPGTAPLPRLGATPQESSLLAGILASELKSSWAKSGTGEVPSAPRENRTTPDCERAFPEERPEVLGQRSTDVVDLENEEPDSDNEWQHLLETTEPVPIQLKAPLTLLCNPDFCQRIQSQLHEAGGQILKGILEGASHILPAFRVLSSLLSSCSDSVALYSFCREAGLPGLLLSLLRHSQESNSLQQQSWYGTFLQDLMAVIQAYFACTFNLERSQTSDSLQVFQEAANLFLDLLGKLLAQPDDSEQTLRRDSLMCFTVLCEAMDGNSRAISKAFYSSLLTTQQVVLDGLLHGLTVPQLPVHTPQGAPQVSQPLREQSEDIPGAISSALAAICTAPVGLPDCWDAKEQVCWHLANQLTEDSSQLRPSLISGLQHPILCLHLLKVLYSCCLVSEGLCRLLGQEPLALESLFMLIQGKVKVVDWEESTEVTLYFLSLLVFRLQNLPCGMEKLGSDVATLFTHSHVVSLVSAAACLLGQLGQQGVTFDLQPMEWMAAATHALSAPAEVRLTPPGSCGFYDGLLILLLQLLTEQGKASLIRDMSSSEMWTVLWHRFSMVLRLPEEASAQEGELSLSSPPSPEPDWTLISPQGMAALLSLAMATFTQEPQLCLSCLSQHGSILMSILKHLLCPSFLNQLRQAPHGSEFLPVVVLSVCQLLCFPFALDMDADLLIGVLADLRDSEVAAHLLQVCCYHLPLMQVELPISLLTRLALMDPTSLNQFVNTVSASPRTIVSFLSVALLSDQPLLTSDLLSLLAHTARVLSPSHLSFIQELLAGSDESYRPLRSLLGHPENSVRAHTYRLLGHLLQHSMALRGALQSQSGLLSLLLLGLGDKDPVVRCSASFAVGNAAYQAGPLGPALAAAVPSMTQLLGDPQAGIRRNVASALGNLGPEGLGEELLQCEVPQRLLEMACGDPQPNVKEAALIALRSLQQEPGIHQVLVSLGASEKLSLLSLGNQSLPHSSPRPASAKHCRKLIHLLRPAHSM

[3] = biological target: LIM domain kinase 2 (Homo sapiens) (UniProt P53671); settings: at 10 µM
[4] = biological target: T2, Atypical kinase COQ8B, mitochondrial (Homo sapiens) (UniProt Q96D53); assay: Selectivity interaction (KinomeScan (DiscoverX)) EUB0000595a ADCK4; settings: at 10 µM
T2 sequence (whole entry): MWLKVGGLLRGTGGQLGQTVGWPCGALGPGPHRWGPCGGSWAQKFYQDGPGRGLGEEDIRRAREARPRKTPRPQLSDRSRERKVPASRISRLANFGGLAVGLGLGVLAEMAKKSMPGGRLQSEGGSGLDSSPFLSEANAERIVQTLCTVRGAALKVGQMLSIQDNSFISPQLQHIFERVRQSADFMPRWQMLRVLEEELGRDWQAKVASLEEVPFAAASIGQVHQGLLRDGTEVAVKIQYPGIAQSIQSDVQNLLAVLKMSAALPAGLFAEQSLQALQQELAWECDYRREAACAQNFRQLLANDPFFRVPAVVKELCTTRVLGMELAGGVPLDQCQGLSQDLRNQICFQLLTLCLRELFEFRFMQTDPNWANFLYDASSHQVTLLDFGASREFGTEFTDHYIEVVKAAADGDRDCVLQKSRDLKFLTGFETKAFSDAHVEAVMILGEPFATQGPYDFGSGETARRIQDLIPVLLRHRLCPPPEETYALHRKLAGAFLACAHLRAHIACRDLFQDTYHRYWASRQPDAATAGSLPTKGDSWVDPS

[5] = biological target: Serine/threonine-protein kinase Nek7 (Homo sapiens) (UniProt Q8TDX7); assay: Selectivity interaction (Ambit KINOMEscan and KiNATiv profiling in Jurkat cells) EUB0000090b NEK7; assay type: cell-based; settings: at 1 µM
[6] = biological target: T3, Dual specificity mitogen-activated protein kinase kinase 4 (Homo sapiens) (UniProt P45985); settings: at 10 µM
T3 sequence (whole entry): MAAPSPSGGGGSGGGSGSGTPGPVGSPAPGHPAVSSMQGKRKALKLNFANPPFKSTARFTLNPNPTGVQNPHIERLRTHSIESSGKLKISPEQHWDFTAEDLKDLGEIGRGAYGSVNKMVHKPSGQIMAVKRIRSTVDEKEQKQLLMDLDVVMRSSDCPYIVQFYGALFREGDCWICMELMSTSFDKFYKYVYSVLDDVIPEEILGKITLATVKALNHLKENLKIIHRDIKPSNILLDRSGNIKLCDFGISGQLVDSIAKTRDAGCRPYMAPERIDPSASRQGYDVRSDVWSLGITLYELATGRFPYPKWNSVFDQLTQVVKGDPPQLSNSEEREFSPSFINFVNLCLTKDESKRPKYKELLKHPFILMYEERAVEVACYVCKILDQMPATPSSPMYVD

[7] = biological target: CDK6/Cyclin D (Homo sapiens) (UniProt P24385+P30281+Q00534+P30279); assay: Selectivity interaction (Upstate Kinase Profiler service (Millipore)) EUB0000056c CDK6; assay type: protein-complex assay; settings: at 1 µM
[8] = biological target: Calcium/calmodulin-dependent protein kinase type 1G (Homo sapiens) (UniProt Q96NX5); assay: Selectivity interaction (KinomeScan (DiscoverX)) EUB0000655a CAMK1G; settings: at 10 µM
[9] = test system: Hepatocyte growth factor receptor (Homo sapiens), P08581 [D1228H]; assay: Selectivity interaction (LanthaScreen Eu Kinase Binding Assay) EUB0001632a MET; settings: at 10 µM
[10] = biological target: 5-hydroxytryptamine receptor 2A (Homo sapiens, UniProt P28223); assay: Selectivity interaction (Panel of non-epigenetic targets (kinases, GPCRs, ion channels, and transporters, Eurofins) ) EUB0000271b HTR2A; settings: at 1 µM
Chain of 5-hydroxytryptamine receptor 2A (P28223 whole entry): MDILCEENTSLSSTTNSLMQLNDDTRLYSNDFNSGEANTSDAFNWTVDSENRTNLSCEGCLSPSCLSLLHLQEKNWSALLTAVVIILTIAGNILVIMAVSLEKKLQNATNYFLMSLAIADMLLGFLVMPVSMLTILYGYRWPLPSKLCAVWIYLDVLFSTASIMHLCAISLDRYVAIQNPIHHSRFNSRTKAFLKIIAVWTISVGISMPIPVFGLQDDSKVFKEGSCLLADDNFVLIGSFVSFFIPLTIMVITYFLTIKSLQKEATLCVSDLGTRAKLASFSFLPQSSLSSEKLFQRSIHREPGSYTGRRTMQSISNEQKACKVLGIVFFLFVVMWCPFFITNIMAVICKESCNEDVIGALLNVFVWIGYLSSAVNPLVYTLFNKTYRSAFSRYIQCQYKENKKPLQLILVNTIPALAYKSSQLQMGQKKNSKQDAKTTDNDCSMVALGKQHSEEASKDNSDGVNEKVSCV

Chain of Serine/threonine-protein kinase PAK 6 (Homo sapiens) (Q9NQU5 whole entry, looked up): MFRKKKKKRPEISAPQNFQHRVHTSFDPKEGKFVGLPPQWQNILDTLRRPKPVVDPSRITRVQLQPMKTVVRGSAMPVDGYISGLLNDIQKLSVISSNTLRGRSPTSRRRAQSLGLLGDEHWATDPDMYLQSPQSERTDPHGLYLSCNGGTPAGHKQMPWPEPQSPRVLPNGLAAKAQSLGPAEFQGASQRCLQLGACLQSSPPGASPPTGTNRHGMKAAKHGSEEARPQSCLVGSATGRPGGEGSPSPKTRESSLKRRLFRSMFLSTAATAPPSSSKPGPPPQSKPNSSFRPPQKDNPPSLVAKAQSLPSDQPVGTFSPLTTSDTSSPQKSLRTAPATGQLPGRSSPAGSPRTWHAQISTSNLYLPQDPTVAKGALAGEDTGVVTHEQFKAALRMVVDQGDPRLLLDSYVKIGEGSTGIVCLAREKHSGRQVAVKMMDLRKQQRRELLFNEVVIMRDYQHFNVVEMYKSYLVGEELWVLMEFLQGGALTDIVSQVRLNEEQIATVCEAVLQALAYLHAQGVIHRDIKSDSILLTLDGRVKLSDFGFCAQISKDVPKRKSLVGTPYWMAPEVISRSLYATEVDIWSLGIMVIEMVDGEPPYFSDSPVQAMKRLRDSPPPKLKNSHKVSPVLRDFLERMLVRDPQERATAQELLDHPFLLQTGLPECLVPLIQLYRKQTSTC
Chain of Hepatocyte growth factor receptor (Homo sapiens), P08581 [D1228H] (P08581 whole entry D1228H): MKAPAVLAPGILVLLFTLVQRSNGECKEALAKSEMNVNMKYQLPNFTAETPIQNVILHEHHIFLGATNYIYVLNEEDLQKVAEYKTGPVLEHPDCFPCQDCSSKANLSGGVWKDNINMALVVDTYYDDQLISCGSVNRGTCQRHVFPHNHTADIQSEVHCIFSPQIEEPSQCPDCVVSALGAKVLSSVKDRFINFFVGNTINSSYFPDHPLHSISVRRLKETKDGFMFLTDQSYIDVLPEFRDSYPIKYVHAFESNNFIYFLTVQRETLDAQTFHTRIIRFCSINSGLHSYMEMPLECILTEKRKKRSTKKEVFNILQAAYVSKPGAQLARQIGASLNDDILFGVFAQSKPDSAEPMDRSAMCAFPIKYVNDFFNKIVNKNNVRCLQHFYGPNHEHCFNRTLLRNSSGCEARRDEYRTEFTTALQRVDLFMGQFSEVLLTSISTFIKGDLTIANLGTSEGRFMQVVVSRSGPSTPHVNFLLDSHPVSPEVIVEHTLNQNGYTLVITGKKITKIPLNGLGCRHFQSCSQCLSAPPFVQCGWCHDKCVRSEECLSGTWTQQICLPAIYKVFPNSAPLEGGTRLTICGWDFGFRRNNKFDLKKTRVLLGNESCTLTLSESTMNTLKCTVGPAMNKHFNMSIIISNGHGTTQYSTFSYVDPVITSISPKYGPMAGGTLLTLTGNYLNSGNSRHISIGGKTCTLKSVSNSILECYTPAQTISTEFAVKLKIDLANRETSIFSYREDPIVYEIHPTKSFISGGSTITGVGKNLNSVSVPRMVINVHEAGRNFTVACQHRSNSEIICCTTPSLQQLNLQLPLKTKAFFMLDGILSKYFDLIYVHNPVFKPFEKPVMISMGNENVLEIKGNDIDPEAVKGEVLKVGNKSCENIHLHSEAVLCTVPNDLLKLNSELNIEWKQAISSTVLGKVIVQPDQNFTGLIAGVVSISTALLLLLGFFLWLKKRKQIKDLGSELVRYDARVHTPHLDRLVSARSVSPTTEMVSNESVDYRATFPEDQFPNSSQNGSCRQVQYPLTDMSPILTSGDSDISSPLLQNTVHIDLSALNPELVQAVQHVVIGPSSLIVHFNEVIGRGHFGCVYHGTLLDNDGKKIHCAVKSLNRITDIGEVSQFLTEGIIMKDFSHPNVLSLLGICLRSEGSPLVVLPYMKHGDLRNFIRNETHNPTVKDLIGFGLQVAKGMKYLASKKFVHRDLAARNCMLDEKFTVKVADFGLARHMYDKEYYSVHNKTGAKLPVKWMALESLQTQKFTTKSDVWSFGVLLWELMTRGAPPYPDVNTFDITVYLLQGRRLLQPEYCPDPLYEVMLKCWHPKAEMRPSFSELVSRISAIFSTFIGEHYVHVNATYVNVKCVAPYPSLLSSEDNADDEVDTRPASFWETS
Chain of Calcium/calmodulin-dependent protein kinase type 1G (Homo sapiens) (Q96NX5 whole entry): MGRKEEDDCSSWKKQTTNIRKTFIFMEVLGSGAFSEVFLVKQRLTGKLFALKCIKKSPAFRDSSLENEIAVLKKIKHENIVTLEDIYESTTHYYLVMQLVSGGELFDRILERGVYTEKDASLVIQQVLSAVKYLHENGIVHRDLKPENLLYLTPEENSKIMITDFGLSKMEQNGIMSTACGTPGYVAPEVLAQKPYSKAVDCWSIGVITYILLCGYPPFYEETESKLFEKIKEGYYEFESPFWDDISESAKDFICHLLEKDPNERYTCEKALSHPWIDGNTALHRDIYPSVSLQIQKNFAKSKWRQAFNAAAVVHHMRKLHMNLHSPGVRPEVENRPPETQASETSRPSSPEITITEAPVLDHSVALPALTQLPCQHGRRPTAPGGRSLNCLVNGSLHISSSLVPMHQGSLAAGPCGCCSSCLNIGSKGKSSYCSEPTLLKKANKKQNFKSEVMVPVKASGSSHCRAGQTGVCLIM
Chain of Serine/threonine-protein kinase Nek7 (Homo sapiens) (Q8TDX7 whole entry, looked up): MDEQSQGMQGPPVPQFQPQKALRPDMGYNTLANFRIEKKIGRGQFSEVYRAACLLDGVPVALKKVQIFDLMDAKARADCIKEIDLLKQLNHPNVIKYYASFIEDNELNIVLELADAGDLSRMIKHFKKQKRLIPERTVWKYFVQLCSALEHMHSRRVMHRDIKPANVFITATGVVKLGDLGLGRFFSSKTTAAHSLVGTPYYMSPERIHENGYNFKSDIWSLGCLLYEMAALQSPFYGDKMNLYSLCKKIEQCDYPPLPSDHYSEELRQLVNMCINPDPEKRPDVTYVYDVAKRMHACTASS
Chain of LIM domain kinase 2 (Homo sapiens) (P53671 whole entry, looked up, the tested form may be a part): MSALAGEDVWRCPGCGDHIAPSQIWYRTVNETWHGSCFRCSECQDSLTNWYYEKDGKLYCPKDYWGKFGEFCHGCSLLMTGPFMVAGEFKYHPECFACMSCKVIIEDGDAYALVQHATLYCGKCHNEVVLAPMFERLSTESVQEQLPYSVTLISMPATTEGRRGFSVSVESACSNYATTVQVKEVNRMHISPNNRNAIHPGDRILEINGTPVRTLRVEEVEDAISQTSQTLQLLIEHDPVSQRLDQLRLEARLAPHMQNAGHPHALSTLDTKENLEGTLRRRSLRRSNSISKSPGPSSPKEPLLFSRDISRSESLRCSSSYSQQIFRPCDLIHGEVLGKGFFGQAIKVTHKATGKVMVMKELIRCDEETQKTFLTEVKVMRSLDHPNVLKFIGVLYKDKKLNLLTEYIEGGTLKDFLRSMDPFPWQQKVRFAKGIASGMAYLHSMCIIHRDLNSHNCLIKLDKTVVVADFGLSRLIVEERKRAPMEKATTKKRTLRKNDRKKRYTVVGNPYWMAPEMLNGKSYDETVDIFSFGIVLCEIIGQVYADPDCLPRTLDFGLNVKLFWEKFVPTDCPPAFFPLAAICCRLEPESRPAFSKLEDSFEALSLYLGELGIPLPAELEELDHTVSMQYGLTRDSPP

`O=C(NOC[C@H](O)CO)c1ccc(F)c(F)c1Nc1ccc(I)cc1F` showed a % of control [1] of 94% and a % of control [2] of 74%.
In the case of `CCN(CC)CCCCNc1ncc2cc(-c3cc(OC)cc(OC)c3)c(NC(=O)NC(C)(C)C)nc2n1`, the % of control [3] was 100%.
Compound `COCC(=O)NC/C=C/c1ccc2ncnc(Nc3ccc(Oc4ccc(C)nc4)c(C)c3)c2c1` [CP-724714] has a % of control [4] of 98%.
For `CN(C)C/C=C/C(=O)Nc1ccc(C(=O)N2CCCC(Nc3ncc(Cl)c(-c4c[nH]c5ccccc45)n3)C2)cc1` (stereo not given), the % of control [5] was 91%.
`Cc1cc([C@@H](C)Nc2ccccc2C(=O)O)c2nc(N3CCOCC3)cc(=O)n2c1` [AZD-6482] showed a % of control [6] of 100%.
Work on `Cc1ccc(-c2ccc3c(ccc4sc5c(c43)NC[C@@H](C)NC5=O)n2)cn1` yielded a % of inhibition [7] of 5%.
In the case of `CN(C)CCOc1ccc(-c2nc(-c3ccncc3)c(-c3ccc4c(c3)CC/C4=N\O)[nH]2)cc1`, the % of control [8] was 100%.
`Cn1cc(-n2cnc3c(NCc4nc5cc(Cl)c(Cl)cc5[nH]4)nc(N4CCOCC4)nc32)cn1` was tested, and the % of inhibition [9] was -208%.
With `Cc1cc(C)cc([C@@H]2c3cc(C)ccc3NC(=O)CN2C(=O)c2ccc(Br)s2)c1` the % of inhibition [10] was 12%.
